Test [1] addresses Histone deacetylase (HDAC1 and HDAC2) (Homo sapiens, UniProt Q13547+Q92769). The test can be described thus: Inhibitory activity was tested against histone deacetylase (HDAC). The test is classed as protein assay.
The next test concerns HT-1080. The test can be described thus: Antiproliferative activity against HT1080 (human fibrosarcoma) cell line. The test is classed as functional, cell-based.
A further test deals with MDA-MB-435. The test can be described thus: cells. The settings on record: Homo sapiens. The test is classed as functional, cell-based.
Test [2] concerns Mus musculus. The test can be described thus: Antitumor activity against HT1080 cell line in mouse xenograft model after orally dosed once every other day at 100 mg/kg. The test is classed as functional. Conditions: HT-1080, route oral.
Test [3] has as its system Mus musculus. Kind of test: Antitumor activity against HT1080 cell line in mouse xenograft model after orally dosed once every other day at 30 mg/kg. The test is classed as functional. The settings on record: HT-1080, route oral.

This note sets out measurements from ChEMBL document CHEMBL1136519, “Indole amide hydroxamic acids as potent inhibitors of histone deacetylases” (Bioorg Med Chem Lett, 2003).

Description for MDA-MB-435: Antiproliferative activity against MDA-435 (human breast carcinoma) cell line.

For `O=C(CCCCCNC(=O)c1cc2ccccc2[nH]1)NO`, the IC50 in test [1] was determined as 12.5 nM.

Consider `Cn1c(C(=O)NCCCCCCC(=O)NO)cc2ccccc21`, for which the IC50 stood at 840 nM in the test with HT-1080, 610 nM in the test on MDA-MB-435 and 47 nM in test [1].

`O=C(CCCCCCNC(=O)c1cc2cc(OC(F)(F)F)ccc2[nH]1)NO`: the IC50 came out at 890 nM in the test with HT-1080, 300 nM in the test on MDA-MB-435 and 16 nM in test [1].

Consider `O=C(CCCCCCNC(=O)c1cc2ccccc2o1)NO`, for which the IC50 with HT-1080 came to 760 nM; with MDA-MB-435, 490 nM; in test [1] it was 29.6 nM.

With `COc1ccc2oc(C(=O)NCCCCCCC(=O)NO)cc2c1`, the IC50 in the test on HT-1080 was found to be 380 nM; with MDA-MB-435 it was 300 nM; in test [1], 15 nM.

`O=C(CCCCCCNC(=O)c1cccc2[nH]ccc12)NO`: in test [1], the IC50 came out at 80.3 nM.

In turn, `O=C(CCCCCCNC(=O)c1ccccn1)NO` registered an IC50 in test [1] of 1680 nM.

For `O=C(CCCCCCNC(=O)c1cn(-c2ccc(Br)cc2)c2ccccc12)NO`, the IC50 amounted to 490 nM with HT-1080, 340 nM in the test on MDA-MB-435 and 18.9 nM in test [1].

On to `O=C(CCCCCCNC(=O)c1cc2cc(F)ccc2[nH]1)NO`, for which the IC50 in the test on HT-1080 turned out to be 480 nM; in the test on MDA-MB-435 it was 250 nM; in test [1], 5.4 nM.

Take `COc1cccc2[nH]c(C(=O)NCCCCCCC(=O)NO)cc12`: the IC50 in the test with HT-1080 is 120 nM; in the test with MDA-MB-435, 130 nM; in test [1] it was 3.1 nM.

As for `O=C(CCCCCCNC(=O)c1cn(-c2ccc(F)cc2)c2ccccc12)NO`, the IC50 with HT-1080 turned out to be 990 nM; with MDA-MB-435 it was 380 nM; in test [1], 11.8 nM.

In the case of `O=C(CCCCCCNC(=O)c1cc2cc(Br)ccc2[nH]1)NO`, the IC50 in the test with HT-1080 is 480 nM; in the test with MDA-MB-435, 470 nM; in test [1], 3.5 nM.

Consider `COc1cc(OC)c2cc(C(=O)NCCCCCCC(=O)NO)[nH]c2c1`, for which the IC50 was 260 nM in the test on HT-1080, 600 nM in the test with MDA-MB-435 and 3.1 nM in test [1].

In the test with Mus musculus [2], `O=C(CCCCCCNC(=O)c1cc2ccccc2[nH]1)NO` had an inhibition in vivo at 100 mg/kg of 39%. In the test on Mus musculus [3], this compound registered an inhibition in vivo at 30 mg/kg of 36%. Besides, in test [1], the IC50 was 14.6 nM.

In test [1], `O=C(CCCCCCNC(=O)c1ccc[nH]1)NO` yielded an IC50 of 524 nM.

Turning to `Cc1ccc2[nH]c(C(=O)NCCCCCCC(=O)NO)cc2c1`, the figures for the IC50 (in the test on HT-1080; in the test with MDA-MB-435; in test [1]) were 200 nM, 170 nM and 6.3 nM, respectively.

With `O=C(CCCCCCNC(=O)c1ccc2[nH]ccc2c1)NO`, in test [1], the IC50 is given as 31.4 nM.

Turning to `O=C(CCCCCNC(=O)c1cccc2[nH]ccc12)NO`, in test [1], the IC50 was 87.6 nM.

In turn, `O=C(CCCCCCNC(=O)c1cccc2cc[nH]c12)NO` registered a half-inhibitory concentration (IC50) in test [1] of 41 nM. Against the preceding compound, the IC50 is about 2.1-fold lower.

Take `Cn1cc(C(=O)NCCCCCCC(=O)NO)c2ccccc21`: the half-inhibitory concentration (IC50) was 780 nM with HT-1080, 390 nM with MDA-MB-435 and 56 nM in test [1].

In the case of `COc1ccc2cc(C(=O)NCCCCCCC(=O)NO)[nH]c2c1`, the IC50 worked out at 340 nM with HT-1080, 230 nM in the test on MDA-MB-435 and 9.9 nM in test [1].

Consider `COc1ccc2[nH]c(C(=O)NCCCCCCC(=O)NO)cc2c1`, for which the IC50 in the test on HT-1080 is 720 nM; in the test with MDA-MB-435, 1200 nM; in test [1], 6.5 nM.

`O=C(CCCCCCNC(=O)c1c[nH]c2ccccc12)NO` came in with a half-maximal inhibitory concentration (IC50) in test [1] of 37.5 nM.

As to `Cc1c(C(=O)NCCCCCCC(=O)NO)oc2ccccc12`, in test [1], the IC50 amounted to 12.5 nM.

In the case of `O=C(CCCCCNC(=O)c1cccc2cc[nH]c12)NO`, the IC50 in test [1] amounted to 37.6 nM.

As to `O=C(CCCCCCNC(=O)c1cn(-c2ccccc2)c2ccccc12)NO`, the IC50 in the test with HT-1080 came out at 2500 nM; with MDA-MB-435, 760 nM; in test [1], 3.5 nM.

For `O=C(CCCCCNC(=O)c1c[nH]c2ccccc12)NO`, the IC50 in test [1] is listed as 39.8 nM.

For `O=C(CCCCCCNC(=O)c1cc2cc(Cl)ccc2o1)NO`, the figures for the IC50 (in the test with HT-1080; with MDA-MB-435; in test [1]) were 180 nM, 190 nM and 15 nM, respectively.

On to `O=C(CCCCCNC(=O)c1ccc2[nH]ccc2c1)NO`, for which the concentration for half-maximal inhibition (IC50) in test [1] worked out at 17 nM. In other words, the double-digit nanomolar range.

Take `CC1c2ccccc2CC1C(=O)NCCCCCCC(=O)NO` (stereo not given): in test [1], the IC50 was determined as 732 nM. Against the preceding compound, the IC50 is about 43-fold higher.

For the compound `O=C(CCCCCCNC(=O)c1cc2cc(OCc3ccccc3)ccc2[nH]1)NO`, the IC50 in the test on HT-1080 was 1500 nM; with MDA-MB-435 it was 800 nM; in test [1], 13.6 nM.

In the case of `O=C(CCCCCCNC(=O)c1ccc2cc[nH]c2c1)NO`, the IC50 in test [1] came out at 56.5 nM. This lies in the double-digit nanomolar range.

With `O=C(CCCCCNC(=O)c1ccc2cc[nH]c2c1)NO`, the half-inhibitory concentration (IC50) in test [1] is listed as 36.4 nM.

As for `O=C(CCCCCCNC(=O)c1cn(Cc2ccccc2)c2ccccc12)NO`, the IC50 in the test on HT-1080 amounted to 1900 nM; in the test on MDA-MB-435, 850 nM; in test [1], 12 nM.

For `COc1cccc2cc(C(=O)NCCCCCCC(=O)NO)oc12`, the IC50 with HT-1080 turned out to be 710 nM; in the test on MDA-MB-435, 320 nM; in test [1], 17 nM.

A word on the IC50: it is the concentration that inhibits the measured activity by half. Higher therefore signals lower potency. In general, inhibition in vivo refers to the share of the control response that was lost under treatment.
